The assay has as its target T1, rh beta tryptase (Homo sapiens, UniProt P20231).
T1 construct: purchased Promega
The assay is described as follows: Tryptase inhibition test (cleavage of N-p-tosyl-Gly-Pro-Lys-para-nitroaniline, p-nitroaniline measured at 405 nm). The conditions noted are these: pH 7.4, 37° C.; for inhibition at 10 µM / % Inhibition (10 μM): inhibition of rh beta tryptase at 10 μM test substance, substrate N-p-tosyl-Gly-Pro-Lys-para-nitroaniline 0.6 mM, 5 minutes; for pIC50: concentration at which 50% of the tryptase enzyme activity is inhibited, substrate 0.6 mM. It counts as biochemical. The procedure, abridged:
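Screening at 10 μM gives percent inhibition, with IC50 derived for compounds above 70% inhibition. Enzyme: rh beta tryptase, 0.91 U/ml, pH 7.4 Tris HCl (100 mM), 5 mM Ca, 100 mg/ml heparin. After 5 min compound pre-incubation, 0.6 mM pNA substrate cleaved 5 min at 37 °C, monitored at 405 nm.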

Here are results for 27 compounds from US6512000B1, “Aminocarbonyl-substituted benzimidazoles having tryptase-inhibitory activity” (Boehringer Ingelheim Pharma KG, priority 1999, dated 2003).

pIC50: −log10 of the molar value. Where a name gives a salt, the structure may show the parent alone.

T1 sequence (P20231 31-275): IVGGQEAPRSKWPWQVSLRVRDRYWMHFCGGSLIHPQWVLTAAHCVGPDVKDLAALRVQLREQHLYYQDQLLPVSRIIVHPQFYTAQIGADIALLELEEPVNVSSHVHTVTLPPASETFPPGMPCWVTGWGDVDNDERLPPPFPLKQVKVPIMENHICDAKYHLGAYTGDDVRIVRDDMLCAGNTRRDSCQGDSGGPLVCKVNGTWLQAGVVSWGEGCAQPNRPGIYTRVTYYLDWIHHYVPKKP

As usually defined, the inhibition is the share of the control response that was lost under treatment. A low value points to a weak effect. For `CCCCN(Cc1ccc(CN)cc1)C(=O)c1ccc2c(c1)nc(CCc1ccc(C(=N)N)cc1)n2Cc1ccc(C)cc1` [Example 93, 2-[2-(4-amidinophenyl)ethyl]-1-(4-methylbenzyl)-benzimidazol-5-yl-carboxylic acid-N-[4-(amino-methyl)-benzyl]-N-n-butyl-amide], the inhibition at 10 µM was 56%. The pIC50 is the IC50 on a negative log10 scale, so that one unit is a factor of ten. Low values mean a high IC50, high ones a low IC50. `CCOCCCn1c(CCc2ccc(C(=N)N)cc2)nc2cc(C(=O)N(CCN)Cc3ccccc3F)ccc21` [Example 406, 2-[2-(4-amidinophenyl)ethyl]-1-(3-ethoxypropyl)-benzimidazol-5-yl-carboxylic acid-N-(2-aminoethyl)-N-(2-fluorobenzyl)-amide]: the negative logarithm of the IC50 (pIC50) was 6.41 and the inhibition at 10 µM came out at 54%. As for `N=C(N)c1ccc(CCc2nc3cc(C(=O)N(CCN)Cc4ccc(Cl)cc4)ccc3n2CC2CC2)cc1` [Example 378, 2-[2-(4-amidinophenyl)ethyl]-1-cyclopropylmethyl-benzimidazol-5-yl-carboxylic acid-N-(2-aminoethyl)-N-(4-chlorbenzyl)-amide], the “% Inhibition (10 μM)” value was found to be 52%. `CCCCN(Cc1ccc(CN)cc1)C(=O)c1ccc2c(c1)nc(CCc1ccc(C(=N)N)cc1)n2CCCN1CCOCC1` [Example 97, 2-[2-(4-amidinophenyl)ethyl]-1-[3-(morpholin-4-yl)-propyl]-benzimidazol-5-yl-carboxylic acid-N-[4-(amino-methyl)-benzyl]-N-n-butyl-amide] displayed an inhibition at 10 µM of 56%. With `CCOCCCn1c(CCc2ccc(C(=N)N)cc2)nc2cc(C(=O)N(CCN)Cc3ccc(Cl)cc3)ccc21` [Example 374, 2-[2-(4-amidinophenyl)ethyl]-1-(3-ethoxypropyi)-benzimidazol-5-yl-carboxylic acid-N-(2-aminoethyl)-N-(4-chlorbenzyl)-amide], the “% Inhibition (10 μM)” value was determined as 62%. The compound `CCOC(=O)C(Cc1ccc(C(=N)N)cc1)N(C)C(=O)c1ccc2c(c1)nc(CCc1ccc(C(=N)N)cc1)n2C` (stereo not drawn) [Example 29, Ethyl 2-{2-[2-(4-Amidinophenyl)-ethyl]-1-methyl-benzimidazol-5-yl-carbonyl-(methylamino)}-3-(4-amidinophenyl)-propionate-formate] showed a negative logarithm of the IC50 (pIC50) of 6.80.

Consider `Cn1c(CCc2ccc(C(=N)N)cc2)nc2cc(C(=O)N(CCC(=N)N)Cc3cnc4ccccc4c3)ccc21` [Example 8, 2-[2-(4-Amidinophenyl)-ethyl]-1-methyl-benzimidazol-5-yl-carboxylic Acid-N-(2-amidinoethyl)-N-(quinolin-3-yl-methyl)-amide-dihydrochloride], for which the pIC50 was 6.70. `N=C(N)c1ccc(CCc2nc3cc(C(=O)N(CCN)Cc4ccc(Cl)cc4)ccc3n2CC2CCCO2)cc1` (stereo not drawn) [Example 386, 2-[2-(4-amidinophenyl)ethyl]-1-(tetrahydrofuran-2-yl-methyl)-benzimidazol-5-yl-carboxylic acid-N-(2-aminoethyl)-N-(4-chlorbenzyl)-amide]: the “% Inhibition (10 μM)” value was determined as 55%. In turn, `Cn1c(CCc2ccc(C(=N)N)cc2)nc2cc(C(=O)N(CCC(=N)N)c3ccccc3)ccc21` [Example 21, 2-[2-(4-Amidinophenyl)-ethyl]-1-methyl-benzimidazol-5-yl-carboxylic Acid-N-(2-amidinoethyl)-N-phenyl-amide-dihydrochloride] gave a pIC50 of 7.29.

In turn, `Cc1ccccc1N1CCN(CCCn2c(CCc3ccc(C(=N)N)cc3)nc3cc(C(=O)N(CCN)Cc4ccccc4)ccc32)CC1` [Example 304, 2-[2-(4-amidinophenyl)ethyl]-1-{3-[4-(2-methylphenyl)-piperazin-1-yl]-propyl}-benzimidazol-5-yl-carboxylic acid-N-(2-aminoethyl)-N-benzyl-amide] yielded an inhibition at 10 µM of 51%.

For `Cn1c(CCc2ccc(C(=N)N)cc2)nc2cc(C(=O)N(CCC(=N)N)c3ccc4ccccc4c3)ccc21` [Example 20, 2-[2-(4-Amidinophenyl)-ethyl]-1-methyl-benzimidazol-5-yl-carboxylic Acid-N-(2-amidinoethyl)-N-(2-naphthyl)-amide-dihydrochloride], the pIC50 is 6.51.

As to `CC(C)N(CCC(=N)N)C(=O)c1ccc2c(c1)nc(CCc1ccc(C(=N)N)cc1)n2C` [Example 27, 2-[2-(4-Amidinophenyl)-ethyl]-1-methyl-benzimidazol-5-yl-carboxylic Acid-N-(2-amidinoethyl)-N-iso-propyl-amide-dihydrochloride], the pIC50 is 6.82. `N=C(N)c1ccc(CCc2nc3cc(C(=O)N(CCN)CC4CCCCC4)ccc3n2CC2CCCO2)cc1` (stereo not drawn) [Example 354, 2-[2-(4-amidinophenyl)ethyl]-1-(tetrahydrofuran-2-yl-methyl)-benzimidazol-5-yl-carboxylic acid-N-(2-aminoethyl)-N-cyclohexylmethyl-amide] showed an inhibition at 10 µM of 58%.

On to `COC(=O)c1ccc(CN(Cc2ccc(CN)cc2)C(=O)c2ccc3c(c2)nc(CCc2ccc(C(=N)N)cc2)n3CC2CC2)cc1` [Example 442, 2-[2-(4-amidinophenyl)ethyl]-1-cyclopropylmethyl-benzimidazol-5-yl-carboxylic acid-N-[4-(amino-methyl)-benzyl]-N-[4-(methoxycarbonyl)-benzyl]-amide], for which the inhibition at 10 µM turned out to be 59%.

Take “2-[2-(4-amidinophenyl)ethyl]-1-cyclopropylmethyl-benzimidazol-5-yl-carboxylic acid-N-(2-aminoethyl)-N-(3-pyridyl)-amide [Example 330]”: the pIC50 is 6.30 and the “% Inhibition (10 μM)” value is 54%. In the case of `N=C(N)c1ccc(CCc2nc3cc(C(=O)N(CCN)Cc4ccc(Cl)cc4)ccc3n2Cc2cccs2)cc1` [Example 387, 2-[2-(4-amidinophenyl)ethyl]-1-(2-thiophenyl-methyl)-benzimidazol-5-yl-carboxylic acid-N-(2-aminoethyl)-N-(4-chlorbenzyl)-amide], the “% Inhibition (10 μM)” value was 55%. `CC(C)CN(CCC(=N)N)C(=O)c1ccc2c(c1)nc(CCc1ccc(C(=N)N)cc1)n2C` [Example 11, 2-[2-(4-Amidinophenyl)-ethyl]-1-methyl-benzimidazol-5-yl-carboxylic Acid-N-(2-amidinoethyl)-N-iso-butyl-amide-dihydrochloride] had a pIC50 of 7.07. As for “2-[2-(4-amidinophenyl)ethyl]-1-(4-methylbenzyl)-benzimidazol-5-yl-carboxylic acid-N-[4-(amino-methyl)-benzyl]-N-(2-pyridyl)-amide [Example 125]”, the “% Inhibition (10 μM)” value is 63%. `CCCCN(CCCC)CCCn1c(CCc2ccc(C(=N)N)cc2)nc2cc(C(=O)N(Cc3ccccc3)Cc3ccc(CN)cc3)ccc21` [Example 103, 2-[2-(4-amidinophenyl)ethyl]-1-(3-di-n-butylaminopropyl)-benzimidazol-5-yl-carboxylic acid-N-[4-(amino-methyl)-benzyl]-N-benzyl-amide] returned an inhibition at 10 µM of 60%. `CCOCCCn1c(CCc2ccc(C(=N)N)cc2)nc2cc(C(=O)N(CCN)Cc3ccc4ccccc4c3)ccc21` [Example 422, 2-[2-(4-amidinophenyl)ethyl]-1-(3-ethoxypropyl)-benzimidazol-5-yl-carboxyiic acid-N-(2-aminoethyl)-N-(2-naphthylmethyl)-amide]: the negative-log IC50 (pIC50) is 6.44 and the inhibition at 10 µM amounted to 58%.

Regarding `N=C(N)c1ccc(CCc2nc3cc(C(=O)N(Cc4ccc(CN)cc4)Cc4ccc5ccccc5c4)ccc3n2CC2CC2)cc1` [Example 234, 2-[2-(4-amidinophenyl)ethyl]-1-cyclopropylmethyl-benzimidazol-5-yl-carboxylic acid-N-[4-(amino-methyl)-benzyl]-N-(2-naphthylmethyl)-amide], the negative logarithm of the IC50 (pIC50) is 6.12. In the case of `COC(=O)c1ccc(CN(Cc2ccc(CN)cc2)C(=O)c2ccc3c(c2)nc(CCc2ccc(C(=N)N)cc2)n3CC2CCCO2)cc1` (stereo not drawn) [Example 450, 2-[2-(4-amidinophenyl)ethyl]-1-(tetrahydrofuran-2-yl-methyl)-benzimidazol-5-yl-carboxylic acid-N-[4-(amino-methyl)-benzyl]-N-[4-(methoxycarbonyl)-benzyl]-amide], the inhibition at 10 µM was found to be 72%. In the case of “2-[2-(4-amidinophenyl)ethyl]-1-[3-(morpholin-4-yl)-propyl]-benzimidazol-5-yl-carboxylic acid-N-[4-(amino-methyl)-benzyl]-N-(2-pyridyl)-amide [Example 129]”, the “% Inhibition (10 μM)” value was 63%. On the same count and under the same terms, as for “2-[2-(4-amidinophenyl)ethyl]-1-(2-cyclohexylethyl)-benzimidazol-5-yl-carboxylic acid-N-[4-(amino-methyl)-benzyl]-N-(3-pyridyl)-amide [Example 137]”, the figure is 52%. The compound `N=C(N)c1ccc(CCc2nc3cc(C(=O)N(Cc4ccc(CN)cc4)Cc4ccccc4F)ccc3n2CCc2ccccc2)cc1` [Example 219, 2-[2-(4-amidinophenyl)ethyl]-1-(2-phenylethyl)-benzimidazol-5-yl-carboxylic acid-N-[4-(amino-methyl)-benzyl]-N-(2-fluorobenzyl)-amide] yielded an inhibition at 10 µM of 51%. As to `CCCCN(CCCC)CCCn1c(CCc2ccc(C(=N)N)cc2)nc2cc(C(=O)N(CCN)Cc3ccc(Cl)cc3)ccc21` [Example 375, 2-[2-(4-amidinophenyl)ethyl]-1-(3-di-n-butylaminopropyl)-benzimidazol-5-yl-carboxylic acid-N-(2-aminoethyl)-N-(4-chlorbenzyl)-amide], the “% Inhibition (10 μM)” value is reported as 58%. Consider `COc1cccc(CN(Cc2ccc(CN)cc2)C(=O)c2ccc3c(c2)nc(CCc2ccc(C(=N)N)cc2)n3CCCN2CCN(c3ccccc3C)CC2)c1` [Example 80, 2-[2-(4-amidinophenyl)ethyl]-1-{3-[4-(2-methylphenyl)-piperazin-1-yl]-propyl}-benzimidazol-5-yl-carboxylic acid-N-[4-(amino-methyl)-benzyl]-N-(3-methoxybenzyl)-amide], for which at 10 µM the inhibition was 53%.
